Assay results from US20070048385A1, “Microcapsules by coacervation containing a pharmaceutical incorporated in the coating polymer” (priority 2003, published 2007).
Blank lines part the entries; values can stand above or below the molecule they belong to.

Key:
[1] = Dissolution test at pH 6.8 according to USP 26; format: physicochemical
Method: A dissolution test is carried out on the microcapsules thus obtained comparing them with anhydrous theophylline in crystalline form.
The dissolution test was performed according to USP 26.
A dissolution test is carried out on the microcapsules obtained in Examples 5 and 6 according to the method previously described for Example 4
Dissolution test was performed according to USP 26
A dissolution test is carried out on the microcapsules thus obtained compared to fluoxetine raw material.

[2] = Dissolution test at pH 1.2 according to USP 26; format: physicochemical; settings: caffeine
Method: The microcapsules obtained, when analysed with an electronic microscope (FIG. 3), show a distribution of the particles of the active principle within the polymeric membrane in the form of solid particles that are prevalently disposed at the interface between the polymer and the core. […] Dissolution test was performed according to USP 26.

Dissolution % at pH 6.8, 5 min ([1]; theophylline): 65%
Dissolution % at pH 6.8, 10 min ([1]; theophylline, T2 second head): 100%
Dissolution % at pH 6.8, 15 min ([1]; 15 min, theophylline): 100%
Structure (SMILES): Cn1c(=O)c2[nH]cnc2n(C)c1=O [Anhydrous Theophylline]

Structure (SMILES): Cn1c(=O)c2c(ncn2C)n(C)c1=O [Caffeine]
Dissolution % at pH 1.2, 60 min [2]: 100%

Dissolution % at pH 6.8, 5 min ([1]; fluoxetine): 55%
Dissolution % at pH 6.8, 10 min ([1]; fluoxetine): 75%
Dissolution % at pH 6.8, 20 min ([1]; 20 min, fluoxetine): 100%
Structure (SMILES): CNCCC(Oc1ccc(C(F)(F)F)cc1)c1ccccc1 (stereo not shown) [Fluoxetine]
